Results on four compounds are retold here after patent publication EP2356213B1, “STEM CELL AGGREGATE SUSPENSION COMPOSITIONS AND METHODS FOR DIFFERENTIATION THEREOF” (VIACYTE, INC., priority 2008, dated 2010).

Each structure is given as a SMILES string. Entries after “also recorded” stand apart in the source; their conditions may differ.

One series relates to BG02 hESCs. Nature of the series: Proliferation of hESCs in conditioned medium with AG825. Format: cell-based, human. From the text:
(§1) Colony and cell-counting assays confirmed that LongR3-IGFl and HRG played the major roles in self-renewal and proliferation in the context of one of the embodiments of the present invention (Fig. 6D, 6E). Phosphorylation of IGF1R, IR, […], ErbB2, and ErbB3 was also observed in both steady-state DC-HAIF cultures, and in starved cultures that were pulsed with DC-HAIF (Fig. 6F).

The target of the next series is T1, ErbB2 (Homo sapiens, UniProt P04626).
T1 construct: endogenous in cells; host or cells: human embryonic stem cells (hESCs) growing in DC-HAIF
T1 sequence (P04626 23-1255): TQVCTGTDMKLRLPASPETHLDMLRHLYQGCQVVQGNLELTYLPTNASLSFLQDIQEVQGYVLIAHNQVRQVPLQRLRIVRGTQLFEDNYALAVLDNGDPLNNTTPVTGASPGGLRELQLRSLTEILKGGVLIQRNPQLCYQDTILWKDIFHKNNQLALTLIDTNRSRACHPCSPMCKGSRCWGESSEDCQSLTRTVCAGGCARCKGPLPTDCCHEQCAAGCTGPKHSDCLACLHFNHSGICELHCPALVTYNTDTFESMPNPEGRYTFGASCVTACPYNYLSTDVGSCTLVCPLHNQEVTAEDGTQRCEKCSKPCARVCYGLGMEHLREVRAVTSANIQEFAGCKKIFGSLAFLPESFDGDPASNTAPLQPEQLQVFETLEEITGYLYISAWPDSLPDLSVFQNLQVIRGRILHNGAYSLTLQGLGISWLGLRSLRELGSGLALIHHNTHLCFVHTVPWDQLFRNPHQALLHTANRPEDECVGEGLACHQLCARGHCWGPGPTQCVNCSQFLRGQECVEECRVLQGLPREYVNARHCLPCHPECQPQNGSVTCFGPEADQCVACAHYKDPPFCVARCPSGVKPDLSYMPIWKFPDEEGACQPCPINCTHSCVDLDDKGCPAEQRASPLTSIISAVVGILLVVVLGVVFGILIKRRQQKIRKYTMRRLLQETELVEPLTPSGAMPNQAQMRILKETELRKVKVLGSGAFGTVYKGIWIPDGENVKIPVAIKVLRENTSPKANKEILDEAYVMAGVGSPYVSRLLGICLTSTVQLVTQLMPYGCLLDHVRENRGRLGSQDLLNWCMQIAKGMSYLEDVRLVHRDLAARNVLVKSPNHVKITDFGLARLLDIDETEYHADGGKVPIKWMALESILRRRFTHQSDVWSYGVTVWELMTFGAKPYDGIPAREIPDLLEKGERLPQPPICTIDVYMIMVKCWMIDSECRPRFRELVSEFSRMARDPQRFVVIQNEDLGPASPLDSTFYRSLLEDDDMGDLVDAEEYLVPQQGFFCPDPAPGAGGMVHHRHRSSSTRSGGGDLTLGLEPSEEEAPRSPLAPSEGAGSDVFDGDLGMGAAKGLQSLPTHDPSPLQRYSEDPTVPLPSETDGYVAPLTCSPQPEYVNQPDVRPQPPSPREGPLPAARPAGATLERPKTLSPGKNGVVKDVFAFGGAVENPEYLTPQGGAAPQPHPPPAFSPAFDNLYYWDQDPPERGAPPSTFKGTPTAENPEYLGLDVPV
Nature of the series: Western blotting of ErbB2 autophosphorylation in starved/heregulin pulsed hESCs. Format: cell-based. The note with it: starved/heregulin (HRG) pulsed hESCs in DC-HAIF.
From the text: as §1

A further series has as its system BGOlv cells. In words: Effect of ErbB tyrosine kinase inhibitors on proliferation of BG01v hESCs (alkaline phosphatase staining after 5 days). The series is classed as cell-based. The protocol: The EGF domain family of ligands bind to the ErbB family of receptor tyrosine kinases. To examine the effect of known inhibitors of ErbB tyrosine kinases in hESCs, BGOlv cells were plated in 6 well trays on MATRIGEL™ diluted at 1:1000, in defined culture medium (DC) containing 100 ng/mL LongR3-IGFl, 8 ng/mL FGF2 and 1 ng/mL Activin A. On the next day, DMSO (carrier control), 50 nM-20 µM AG1478 (an ErbB1 inhibitor), or 100 nM-20 µM AG879 (an ErbB2 inhibitor) was added with fresh medium. The cells were cultured for an additional 5 days, with daily media changes. The cultures were then fixed and stained for alkaline phosphatase activity.

The subject of a further series is R1 mouse ES cells. Nature of the series: Effect of ErbB1/ErbB2 inhibitors on proliferation of mouse ES cells (alkaline phosphatase staining, 8 days). The series is classed as cell-based. How it is done:
AG1478 and AG879 were used to examine the role of HRG/ErbB signaling in mouse ES cells. R1 mouse ES cells were maintained in standard conditions in DMEM, 10% FBS, 10% KSR, 0.5 U/mL penicillin, 0.5 U/mL streptomycin, 1xNEAA, 1 mM sodium pyruvate, 1000 U/mL LIF (ESGRO), 0.1 mM β-ME, and were passaged with 0.5% trypsin/EDTA. 2x10^5 cells/well were plated in 6 well trays on MATRIGEL™ diluted at 1:1000. The day after plating, DMSO (carrier control), 1-50 µM AG1478, or 1-50 µM AG879 was added with fresh medium. The cells were cultured an additional 8 days, with daily media changes. The cultures were then fixed and stained for alkaline phosphatase activity.

For a further series, the system named is BG02 cells. In words: Suspension cultures with and without an apoptosis inhibitor, cell counting. Format: cell-based, human. The protocol:
To attenuate the loss of cells after initial passaging in suspension, an inhibitor of apoptosis was added to the medium. Cells were passaged as in Example 12, except that Y-27632, an inhibitor of p160-Rho-associated coiled-coil kinase (ROCK), was added to the medium.
Suspension aggregates of BG02 cells were formed by seeding 2x10^6 single cells in 6-well dishes in 3 mL DC-HAIF medium, at 100 rpm on a rotating platform in an incubator (Table 2, Experiment A). 10 µM Y27632 ROCK inhibitor was added to test wells for the course of the experiment and the cultures observed daily and counted after 24 hours (day 1) and after 4 or 5 days. […] Cell counting confirmed that more viable cells were present in the presence of inhibitor (Table 2, Experiment A). This difference in cell number persisted throughout the course of the culture period, with more cells also observed on day 4, compared to cultures without inhibitor. As with previous suspension culture experiments, cells exposed to Y27632 could also be serially passaged, and maintained in an undifferentiated state (not shown).
As previous experiments had shown that growth rates of cells in suspension and adherent culture were similar after the initial 24 hours, an experiment was performed where Y27632 was removed after this initial period (Table 2, Experiment B). […] 1.4x10^7 (+Y27632) and 1.8x107 (+/-Y27632) viable cells were generated when inhibitor was present compared to 3.9x10^6 cells in untreated cultures. This analysis confirmed that Y27632 had the largest impact during the first 24 hours of suspension hESC culture.
Because of the enhanced survival and aggregation observed in the presence of Y27632, an experiment was performed to examine if it was possible to reduce the number of cells used to seed suspension cultures (Table 2, Experiment C). […] To determine if addition of a ROCK inhibitor would allow cell seeding at lower densities, a range of cell concentrations (from about 2x10^6 total cells down to about 1x10^5 total cells was used to seed suspension cultures in 6-well trays cells in 3 mL DC-HAIF. 10 µM Y27632 was added to all conditions, and the cell number and viability assessed on day 5. Successful aggregation and expansion was observed even at low seeding densities. An approximately 13 fold expansion of viable cells was observed even cultures that were only seeded with 1x10^5 cells. Inhibition of ROCK with Y27632 therefore facilitated initial survival of hESCs at much lower densities in this suspension system. Table 2 - Suspension Cultures with and without an Apoptosis Inhibitor

The subject of series [1] is pancreatic epithelial and endocrine type cells. Nature of the series: Re-aggregation of dissociated stage 4 or stage 5 adherent cultures with ROCK inhibitor. The series is classed as cell-based, human. The note with it: 10µM. The protocol: Adherent cultures at either stage 4 (about d10 - d14 into the differentiation protocol; pancreatic epithelial and endocrine type cells) or stage 5 (about day 16 to day 30 into the differentiation protocol; endocrine precursor and endocrine cells) were similarly dissociated into single cells, counted, and pelleted. The cell pellet was then resuspended in DMEM CMRL supplemented Pen/Strep and Glutamax, and IX B27-supplement and DNase (50-100 µg/ml, Roche Diagnostics) and 0-2% FBS. […] Cells were equally distributed into 6-well plates and placed on a rotating platform at 100 rpm to 140 rpm form 4 hours to overnight substantially as described above.

For a further series, the system named is ES cells. Nature of the series: Suspension cultures in various media, cell counting. The note with it: added to HAIF, HAI, HI. Format: cell-based. How it is done: To determine if suspensions of ES cells could be cultured in the absence of FGF2 and/or Activin A, ES cells were cultured in a variety of media, with and without these factors. […] In addition, the cells in each media were successfully passaged with no morphological signs of differentiation. Table 3 - Suspension Cultures in Various Media

[2] abbreviates: Expt. A, seeding 2x10^6, p0, day 1.
Where [3] appears, read: Expt. A, seeding 2x10^6, p0, day 4.
Where [4] appears, read: Expt. A, seeding 2x10^6, p1, day 4.
The mark [5] stands for this setting: Expt. B, seeding 2x10^6, p0, day 1.
The mark [6] stands for this setting: Expt. B, seeding 2x10^6, p0, day 5, +/-Y27632 = inhibitor removed after 24 hours, listed as +/-Y27632.
The mark [7] stands for this setting: Expt. B, seeding 2x10^6, p0, day 5, +/-Y27632 = inhibitor removed after 24 hours, listed as +Y27632.
[8] abbreviates: Expt. C, seeding 1x10^6, p0, day 1.
Where [9] appears, read: Expt. C, seeding 1x10^6, p0, day 5.
The mark [10] stands for this setting: Expt. C, seeding 2x10^6, p0, day 1.
Where [11] appears, read: Expt. C, seeding 2x10^6, p0, day 5.
The mark [12] stands for this setting: Expt. C, seeding 2.5x10^5, p0, day 1.
Where [13] appears, read: Expt. C, seeding 2.5x10^5, p0, day 5.
Setting [14] is: Expt. C, seeding 5x10^5, p0, day 1.
The mark [15] stands for this setting: Expt. C, seeding 5x10^5, p0, day 5.
The mark [16] stands for this setting: Expt. C, seeding 10^5, p0, day 1.
The mark [17] stands for this setting: Expt. C, seeding 10^5, p0, day 5.

`COc1cc(C=C(C#N)C(N)=O)cc(CSc2nc3ccccc3s2)c1O` [AG825, tyrphostin AG825]: the proliferation entry in the series with BG02 hESCs (50 µM, conditioned medium (CM)) is on record as “significantly inhibited proliferation”. Further, the “time viable hESCs could be maintained” value in the series on BG02 hESCs (in presence of AG825) is on record as more than 5 days. Besides, at ErbB2, the “autophosphorylation of ErbB2 at tyrosine-1248” value is given as “inhibited autophosphorylation of ErbB2 at tyrosine-1248; also recorded: inhibits ErbB2 Y1248 phosphorylation”.
In the case of `CC(C)(C)c1cc(/C=C(\C#N)C(N)=S)cc(C(C)(C)C)c1O` [AG879], the cell growth entry in the series on BGOlv cells (at 5 µM, 5 days) is listed as “substantially inhibited cell growth; also recorded: substantially slowed cell growth”; in the series with R1 mouse ES cells (at 50 µM) it was “substantially inhibited cell growth”. Further, in the series with BGOlv cells (at 20 µM), the cell death entry is “caused cell death”. Also, the differentiation result is “inhibit proliferation without inducing differentiation” with BGOlv cells (cultures grown in AG879) and “did not appear to differentiate” in the series with R1 mouse ES cells (mESCs grown in AG879). Also, the proliferation result in the series on R1 mouse ES cells (at 20 µM) is given as “may have slowed proliferation”. Further, in the series on R1 mouse ES cells (mESCs vs BG01v cells grown in defined conditions), the “concentration required to inhibit proliferation, mESCs relative to BG01v cells” value is reported as approximately 10 x.
Regarding `COc1cc2ncnc(Nc3cccc(Cl)c3)c2cc1OC` [AG1478], the cell proliferation entry in the series with BGOlv cells (50 nM-20 µM, 5 days, DC medium) is “neither DMSO nor AG1478 (50 nM-20 µM) had an apparent affect on cell proliferation; also recorded: did not appear to affect proliferation”; with R1 mouse ES cells (1-50 µM, 8 days, 10% FBS, 10% KSR, LIF) it was “no apparent affect on cell proliferation; also recorded: did not overtly inhibit proliferation”.
With `C[C@@H](N)[C@H]1CC[C@H](C(=O)Nc2ccncc2)CC1` [Y27632], the “expansion of viable cells” value in the series on BG02 cells (10 µM Y27632, seeded with 1x10^5 cells, day 5) is “approximately 13 fold”. Further, the “initial aggregation in suspension culture” value in the series with BG02 cells (10 µM, compared to medium without inhibitor) is “much larger aggregates were formed”. Also, the “differentiation state by RT-PCR” value with BG02 cells (BG02 suspension culture in the presence of Y27632) is on record as “remained undifferentiated”. Also, the “cell number when the aggregates were split again” value in the series with BG02 cells (Expt. A, p1, vs without inhibitor) is given as “almost twice as many cells were observed”. For the same compound, the “Cell counts: total” value is on record as 1.6x10^6 in the series on BG02 cells (setting [2]); 7.8x10^6 in the series with BG02 cells (setting [3]); 4.6x10^6 in the series with BG02 cells (setting [4]); 1.9x10^6 with BG02 cells (setting [5]); 1.9x10^7 in the series with BG02 cells (setting [6]); 1.5x10^7 in the series on BG02 cells (setting [7]). For the same compound, the “Cell counts: total” value with BG02 cells (setting [8]) is recorded as 8.7x10^5; with BG02 cells (setting [9]) it was 8.6x10^6; in the series on BG02 cells (setting [10]) it was 1.9x10^6; with BG02 cells (setting [11]), 1.4x10^7; with BG02 cells (setting [12]), 2.6x10^5; in the series with BG02 cells (setting [13]), 2.7x10^6. In addition, the “Cell counts: total” value in the series with BG02 cells (setting [14]) is recorded as 4.6x10^5; in the series with BG02 cells (setting [15]) it was 5.7x10^6; in the series on BG02 cells (setting [16]) it was 6.8x10^4; in the series with BG02 cells (setting [17]), 1.4x10^6. The “Cell counts: viable” value is 1.2x10^6 in the series with BG02 cells (setting [2]); 7.1x10^6 in the series with BG02 cells (setting [3]); 4.2x10^6 with BG02 cells (setting [4]); 1.4x10^6 with BG02 cells (setting [5]); 1.8x10^7 in the series on BG02 cells (setting [6]); 1.4x10^7 in the series with BG02 cells (setting [7]). Further, the “Cell counts: viable” value in the series on BG02 cells (setting [8]) was 6.6x10^5; with BG02 cells (setting [9]) it was 7.8x10^6; with BG02 cells (setting [10]) it was 1.6x10^6; in the series with BG02 cells (setting [11]), 1.2x10^7; with BG02 cells (setting [12]), 2.3x10^5; in the series with BG02 cells (setting [13]), 2.5x10^6. The “Cell counts: viable” value in the series on BG02 cells (setting [14]) is listed as 3.5x10^5; in the series on BG02 cells (setting [15]), 5.3x10^6; in the series with BG02 cells (setting [16]) it was 5.4x10^4; with BG02 cells (setting [17]), 1.3x10^6. Besides, the “Cell counts: viable, %” value was determined as 74% in the series on BG02 cells (setting [2]); 91% in the series on BG02 cells (setting [3]); 91% in the series with BG02 cells (setting [4]); 73% in the series with BG02 cells (setting [5]); 96% in the series on BG02 cells (setting [6]); 92% with BG02 cells (setting [7]). Moreover, the “Cell counts: viable, %” value in the series on BG02 cells (setting [8]) came out at 76%; in the series with BG02 cells (setting [9]), 91%; in the series on BG02 cells (setting [10]), 84%; in the series with BG02 cells (setting [11]), 90%; in the series with BG02 cells (setting [12]), 91%; in the series on BG02 cells (setting [13]) it was 91%. Besides, the “Cell counts: viable, %” value in the series on BG02 cells (setting [14]) is reported as 75%; in the series on BG02 cells (setting [15]), 93%; in the series with BG02 cells (setting [16]), 79%; with BG02 cells (setting [17]) it was 92%. Moreover, the cell survival entry in series [1] was “supported cell survival”. Moreover, the “yield of cells generated by day 5” value in the series on ES cells is recorded as “increased the yield of cells generated by day 5 in all conditions”.
